Experimental data published in paper PMC3716919, “Oxidative stress disruption of receptor-mediated calcium signaling mechanisms” (Journal of Biomedical Science, 2013).
Several values for one entry are separate records, joined by “and”; a condition that tells them apart may be missing. Equal values may be shown once. Entries after “also recorded” stand apart in the source; their conditions may differ.

What was measured:
[1] = target: T1, human M3 muscarinic acetylcholine receptor (Homo sapiens, UniProt P20309); assay type: cell-based
T1 construct: CHO cells expressing the human M3 muscarinic acetylcholine receptor open reading frame; host or cells: CHO cells, stably transfected (CHO-M3)

[2] = tested on: store-operated calcium entry (SOCE) channels; assay: Store-operated calcium entry (SOCE) in CHO-M3 cells (fura-2 imaging); assay type: cell-based, Chinese hamster; settings: for acute effect of direct SOCE channel inhibitors on SOCE: added after activation of SOCE by 10 μM carbamylcholine, honokiol 30 μM in insert, unpublished observations; for initial rate of rise of [Ca2+]i in response to reintroduction of calcium: control cells
[3] = target: T2, human M3 muscarinic receptor (Homo sapiens, UniProt P20309); assay type: binding
T2 construct: CHO cells expressing the human M3 muscarinic acetylcholine receptor open reading frame; host or cells: CHO cells, stably transfected (CHO-M3)
Procedure: (§1) In some experiments, the cells were exposed to 2 mM tBHP for 90 min before harvesting. Binding was determined by filtering the suspension through glass fiber filters (1 μm pore size) and measuring the amount of radioactivity bound to membranes trapped on the filters by liquid scintillation counting.
(§2) Binding parameters were averaged from 3 independent experiments. […] 5′-Guanylyl-imidodiphosphate (Gpp(NH)p) was included in some experiments to assess receptor – G protein interactions.

[4] = target: T3, human M2 muscarinic receptor (Homo sapiens, UniProt P08172); assay: [3H]N-methylscopolamine dissociation from M2 receptors expressed in CHO cells; assay type: binding
T3 sequence (P08172 1-466): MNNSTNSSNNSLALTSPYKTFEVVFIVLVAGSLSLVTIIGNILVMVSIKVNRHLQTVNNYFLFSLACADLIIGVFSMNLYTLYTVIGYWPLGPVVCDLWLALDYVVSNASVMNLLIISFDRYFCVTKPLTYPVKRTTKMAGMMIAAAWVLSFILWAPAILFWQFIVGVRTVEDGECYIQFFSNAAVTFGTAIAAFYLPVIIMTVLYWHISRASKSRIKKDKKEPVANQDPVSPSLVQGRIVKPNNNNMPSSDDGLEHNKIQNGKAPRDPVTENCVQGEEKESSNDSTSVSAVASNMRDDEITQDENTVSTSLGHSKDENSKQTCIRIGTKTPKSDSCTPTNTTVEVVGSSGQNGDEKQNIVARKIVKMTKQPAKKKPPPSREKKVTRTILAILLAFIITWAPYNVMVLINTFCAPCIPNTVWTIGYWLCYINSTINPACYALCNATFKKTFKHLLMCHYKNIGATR
Procedure: as §1, §2
Muscarinic receptors can also be regulated by ligands that bind to an allosteric site. […] Accordingly, we measured ligand dissociation from muscarinic receptors after exposure to 2 mM tBHP for 90 min (Figure 9).

CHO-M3 cells [5] = assay: Resting cytosolic calcium concentration in CHO-M3 cells (fura-2 imaging); assay type: cell-based, Chinese hamster
CHO-M3 cells [6] = assay: Endoplasmic reticulum luminal calcium (Mag-Fura 2, saponin-permeabilized cells); assay type: cell-based, Chinese hamster
Procedure: The concentration of Ca^2+ in the lumen of the ER ([Ca^2+]L) was measured using the low-affinity calcium indicator, Mag-Fura 2 (Molecular Probes). […] The media was removed and the cells rinsed with BSS and then incubated with Mag-Fura 2 (50 μM) for 60 minutes at room temperature. Mag-Fura 2 was removed and the cells incubated for an additional 30 minutes. Prior to imaging, the BSS was removed and replaced with Ca^2+- and Mg^2+-free BSS. During imaging, the cells were permeabilized by exposure to 0.005% saponin for 70 seconds to release cytosolic calcium. This caused a rapid decrease in total fluorescence intensity following excitation at both 340 and 380 nm, but elimination of the pervasive cytosolic signal allowed detection of ER lumen calcium levels 30 seconds after saponin addition. Following stabilization of the signal (≈100 sec), R340/380 was averaged for 10 seconds in approximately 20 cells on each plate.

CHO-M3 cells [7] = assay: Reactive oxygen species, DCFDA fluorescence; assay type: cell-based, Chinese hamster; settings: 90 min exposure
Procedure: The concentration of reactive oxygen species (ROS) was determined by the […] of 2′,7′-dichlorodihydrofluorescein (DCFDA; Sigma). CHO-M3 cells were plated on a 96 well plate with opaque walls at a density of 30,000 cells/well, and incubated overnight in phenol red-free media. Following a 90 min exposure to tBHP, the media was removed and the cells were washed with BSS. DCFDA (100 μl of a 40 μM solution) was added, and the plate was incubated for 1 h before measuring fluorescence at 485 nm excitation/520 nm emission using a FLUOstar plate reader.

CHO-M3 cells [8] = assay: Thapsigargin-induced release of calcium from the ER in CHO-M3 cells (fura-2 imaging)
[9] = 90 min exposure, extracellular calcium present

T2 sequence (P20309 whole entry): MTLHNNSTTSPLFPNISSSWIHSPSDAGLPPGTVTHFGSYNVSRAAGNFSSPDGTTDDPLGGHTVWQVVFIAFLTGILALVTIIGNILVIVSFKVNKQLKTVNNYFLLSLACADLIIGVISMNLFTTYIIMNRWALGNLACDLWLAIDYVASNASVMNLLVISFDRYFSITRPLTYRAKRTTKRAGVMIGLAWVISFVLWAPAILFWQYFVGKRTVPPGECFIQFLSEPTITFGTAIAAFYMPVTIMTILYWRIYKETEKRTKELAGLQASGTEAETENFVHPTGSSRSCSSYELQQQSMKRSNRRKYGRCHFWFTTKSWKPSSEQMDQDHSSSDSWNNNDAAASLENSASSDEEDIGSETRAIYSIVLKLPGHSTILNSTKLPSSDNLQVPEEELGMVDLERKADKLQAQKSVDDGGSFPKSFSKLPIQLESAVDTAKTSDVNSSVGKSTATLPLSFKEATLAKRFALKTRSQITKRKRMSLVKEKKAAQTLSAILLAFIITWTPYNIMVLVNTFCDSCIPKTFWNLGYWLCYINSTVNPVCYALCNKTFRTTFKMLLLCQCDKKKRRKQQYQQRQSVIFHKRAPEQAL
T1 sequence (P20309 whole entry): as above

NCCOB(c1ccccc1)c1ccccc1 [2-aminoethoxydiphenylborane]
effect on all calcium responses to carbamylcholine [1]: completely blocked
acute effect of direct SOCE channel inhibitors on SOCE [2]: immediate reductions in SOCE; also recorded: immediate reduction of SOCE

C=CCc1ccc(O)c(-c2ccc(O)c(CC=C)c2)c1 [honokiol]
acute effect of direct SOCE channel inhibitors on SOCE [2]: immediate reductions in SOCE; also recorded: immediate reduction of SOCE

Nc1nc2c(ncn2[C@@H]2O[C@H](COP(=O)(O)OP(=O)(O)NP(=O)(O)O)[C@@H](O)[C@H]2O)c(=O)[nH]1 [Gpp(NH)p, 5′-Guanylyl-imidodiphosphate]
effect on carbamylcholine inhibition curves of [3H]MS binding [3]: shifted the inhibition curves to the right

C[N+]1(C)[C@@H]2CC(OC(=O)[C@H](CO)c3ccccc3)C[C@H]1[C@@H]1O[C@@H]12 (stereo partly shown) [[^3H]MS, [^3H]N-methylscopolamine]
k−1, rate constant for [3H]MS dissociation [4]: 0.027 ± 0.004 min⁻¹ and 0.021 ± 0.006 min⁻¹
k−1, rate constant for [3H]MS dissociation, with gallamine [4]: 0.004 ± 0.001 min⁻¹ and 0.005 ± 0.002 min⁻¹

Cl.O=S(=O)(c1cccc2c(Cl)cccc12)N1CCCNCC1 [ML 9, 1-(5-chloronaphthalenesulfonyl)homo piperazine hydrochloride]
acute effect of direct SOCE channel inhibitors on SOCE [2]: immediate reduction of SOCE

CC(C)(C)OO [tBHP, tert-butyl hydroperoxide]
effect on the response to M3 receptor activation ([1]; 90 min exposure, all concentrations at or above 1 mM, no extracellular calcium): depressed
effect on the initial calcium response to carbamylcholine [1, 9]: not significantly affected
resting [Ca2+]i after exposure (control 26 nM) (CHO-M3 cells [5]; 20 mM tBHP, 90 min, 2 mM extracellular calcium): 127 nM
resting [Ca2+]i after exposure (control 26 nM) (CHO-M3 cells [5]; 0.5-10 mM tBHP, 90 min (abstract)): up to 127 nM
resting calcium concentration after exposure (CHO-M3 cells [5]; 90 min exposure, Figure 3a): > 100 nM
acute effect on calcium entry after activation of SOCE ([2]; 20 mM added at 120 sec after 10 μM carbamylcholine): did not block calcium entry
depression of SOCE after thapsigargin ([2]; 90 min exposure, 0.5-5 mM, dose-dependent, calcium reintroduced (2 mM)): 30-70%
effect on ability of thapsigargin-induced calcium release to evoke SOCE ([2]; 90 min exposure, 0.5-20 mM, extracellular calcium present): severely compromised
effect on ability to maintain the higher level of [Ca2+]i (plateau, SOCE) [2, 9]: compromised in a concentration-dependent manner
decrease of [Ca2+]L (CHO-M3 cells [6]; 90 min exposure, 0.5-10 mM (abstract)): 55%
[Ca2+]L, % of control levels (CHO-M3 cells [6]; pretreatment 1-20 mM for 90 min): ≈ 55 % of control
threshold concentration for ROS production (CHO-M3 cells [7]): 5 mM
increase in ROS (CHO-M3 cells [7]; at 10 mM tBHP): up to 400%
effect on ability of carbamylcholine to inhibit [3H]MS binding [3]: not affected
effect on atropine-induced dissociation of M3 receptor-[3H]MS complex and on gallamine slowing of dissociation [3]: had no effect
effect on [3H]MS binding affinity ([3]; 2 mM for 90 min): not affected
effect on allosteric receptor actions ([4]; 2 mM for 90 min): not affected
inhibition of the initial thapsigargin-stimulated release of calcium from the ER (CHO-M3 cells [8]; 90 min exposure, all concentrations 0.5 to 5 mM, calcium-free medium): 50%

C[N+](C)(C)CCOC(N)=O.[Cl-] [carbamylcholine]
initial rate of rise of [Ca2+]i in response to reintroduction of calcium ([2]; after carbamylcholine in calcium-free medium, 2 mM calcium reintroduced): 24 ± 8 nM/s

C/C=C(/C)C(=O)O[C@H]1C(C)=C2[C@H]([C@@H]1OC(=O)CCCCCCC)[C@@](C)(OC(C)=O)C[C@H](OC(=O)CCC)[C@@]1(O)[C@H]2OC(=O)[C@@]1(C)O [thapsigargin]
initial rate of rise of [Ca2+]i in response to reintroduction of calcium ([2]; after 1 μM thapsigargin in calcium-free medium): 40.0 ± 5.1 nM/s
initial rate of rise of [Ca2+]i in response to thapsigargin (CHO-M3 cells [8]; control cells, 1 μM thapsigargin, extracellular calcium present): 4.3 ± 0.6 nM/s
